# According to patent US11279736B2, “Conformationally-preorganized, MiniPEG-containing gamma-peptide nucleic acids” (CARNEGIE MELLON UNIVERSITY, priority 2011, dated 2022):
# Where two headings read alike, the source gives them in different places. Marks after values point to notes of the source that are not given here. [RMPγPNA-N] = PNA unit with R-MP-gamma backbone modification (N: the base)
# How the values were obtained:
# [1] = system: DNA fragment, 171 bp in length (no complementary sequence); test: Non-denaturing gel-shift assay for non-specific (off-target) binding
# Procedure: FIG. 6 illustrates the results of a non-denaturing gel-shift assay that was aimed at evaluating the extent of non-specific binding for an unmodified PNA oligomer (PNA6) and a oligomer containing the inventive R-MP-γPNA monomer (PNA10).
# To assess the extent of off-target binding of PNA and ^R-MPγPNA, a gel-shift assay is performed. In this case, a DNA fragment, 171 bp in length, is incubated with different concentrations of PNA6 and PNA10 (Table 1) in 10 mM sodium phosphate buffer at 37° C. for 16 hr. The two oligomers contain identical nucleobase sequence but differ from another at the γ-backbone. PNA6 is unmodified, whereas PNA10 is modified at every other position with R-MP-γ side-chain. Following incubation, the samples are separated on non-denaturing polyacrylamide gel and stained with SYBR-Gold.
# [2] = Water solubility, saturated concentration by UV-spectroscopy; type: physicochemical; conditions: saturated solution in water
# Procedure: To determine whether inclusion of miniPEG in the backbone of a Formula I PNA has an effect on water solubility of the resultant oligomer, saturating concentrations of PNA6 through 10 (Table 1) were prepared in water and the concentrations of each solution was measured by UV-spectroscopy. The incorporation of a single MP unit enhances the solubility of PNA6 by nearly 2-fold (Table 5). The solubility of the oligomers is further improved, albeit to a smaller extent, with additional MP units.
# [3] = system: immobilized complementary DNA; test: Surface plasmon resonance (SPR) hybridization kinetics; type: binding; conditions: for Kd / association rate constant ka / dissociation rate constant kd: SPR; for association rate constant ka / dissociation rate constant kd: 1:1 binding model; for dissociation rate constant kd: † values approach limits of detection
# Procedure: FIG. 4 illustrates surface plamon resonance (SPR) sensorgrams (solid black lines) and fits (dotted lines) for hybridization of PNA probes to immobilized complementary DNA. Solutions contained 30 nM PNA. Error bars at t=420 sec illustrate standard deviations for three separate trials.
# Surface plasmon resonance (SPR) analysis is used to study the hybridization kinetics of ^R-MPγPNA-DNA and ^R-MPγPNA-RNA duplexes. Briefly, SPR was performed as follows. According to one embodiment, the PNA probe was immobilized to the chip while the DNA target was captured from solution. In another embodiment, a biotinylated version of the DNA target is immobilized on a streptavidin-conjugated, carboxymethylated dextran chip at a relatively low surface density (ca. 100 response units) of DNA targets to limit mass transport effects on the association kinetics. Solutions containing 10-50 nM PNA oligomers are allowed to flow over the chip for about 420 seconds, at which point the flow is switched to a PNA-free buffer to allow net dissociation of the hybridized PNA.
# complementary RNA strand = test: UV-melting / van't Hoff analysis of PNA-RNA hybrid duplexes; type: binding
# Procedure: (§1) FIGS. 2A-2B illustrate UV-melting profiles of PNA-DNA (FIG. 2A) and PNA-RNA (FIG. 2B) hybrid duplexes at a strand concentration of […] each in 10 mM sodium phosphate buffer at pH 7.4. While both the heating and cooling runs were performed because they both have nearly identical profiles UV-melting for only the heating runs are shown.
# A similar pattern is observed for a R-MP-γPNA-RNA duplex, but the observed increase in thermal stability is lower for a R-MP-γPNA-RNA duplex as compared to a R-MP-γPNA-DNA duplex (FIG. 3B). The enhancement in thermal stability of a R-MP-γPNA-RNA duplex is only 3° C. for the first R-MP-γPNA-monomer that is incorporated into the PNA oligomer and this gain in thermal stability reduces to about 1.2° C. per R-MP-γPNA monomer for an oligomer made entirely R-MP-γPNA (PNA5). In contrast the gain in thermal stability is about 2.3° C./unit for R-MP-γPNA-DNA duplexes.
# (§2) Further insights related to the contribution of miniPEG to the stability of the PNA-DNA duplex was obtained from van′t Hoff analysis. Data in Table 2 show the thermodynamic parameters associated with hybridization of PNA1 through 5 to a complementary DNA or RNA strand.
# [4] = system: RNA: 3′-CGUACAXACU-5, X = A, C, G, U (SEQ ID NO: 12); conditions: PNA-RNA, cited from earlier work
# [5] = system: DNA: 3′-[…]-5, X = A, C, G, T (SEQ ID NO: 11); conditions: PNA-DNA, cited from earlier work
# complementary DNA strand = test: UV-melting / van't Hoff analysis of PNA-DNA hybrid duplexes; type: binding; conditions: PNA-DNA duplex, 298 K; for Kd: UV melting; for −ΔG° / −ΔH° / −ΔTS°: averages of three trials
# Procedure: as §1
# UV-melting experiments were performed to determine the effect of MP on the thermal stability of PNA oligomers following hybridization to DNA or an RNA. FIG. 3A illustrates that the incorporation of a single miniPEG side-chain stabilized a PNA-DNA duplex by 4° C. […] However, increase in thermal stability tapers off to a value of about 2.3° C. per unit for the fully-modified oligomer, that is an oligomer made up of R-MP-γPNA groups only (e.g., PNA5).
# as §2
# [6] = ratio of dissociation and association rate constants, † values uncertain, read-out: equilibrium dissociation constant Kd
# [7] = PNA-RNA duplex, 298 K, UV-melting curve fitting
# [8] = range over mismatches, earlier study
Substance,Sat. conc. [2],"Kd [3, 6]",−ΔG° (complementary RNA strand; [7]),−ΔH° (complementary RNA strand; [7]),−ΔTS° (complementary RNA strand; [7]),association rate constant ka [3],dissociation rate constant kd [3],Kd (complementary DNA strand),−ΔG° (complementary DNA strand),−ΔH° (complementary DNA strand),−ΔTS° (complementary DNA strand),also measured
H-ACGGGTAGAATAACAT-NH2 [PNA6] (all peptide nucleic acid (PNA); PNA oligomer with free N-terminus and C-terminal amide),39 mM,–,–,–,–,–,–,–,–,–,–,"intensity of the DNA band ([1]; 10 μM (PNA/DNA ratio of 25:1) or higher): completely disappeared; intensity of the DNA band ([1]; increasing concentrations of oligomer, 37° C., 16 hr): drastic reduction"
H-ACGGGTAGAATAACAT-NH2 [PNA7] (PNA; 1 R-MP-gamma unit; C-terminal amide; modified_base (8)..(8) R-MP-gamma-backbone modified nucleotide),76 mM,–,–,–,–,–,–,–,–,–,–,–
H-ACGGGTAGAATAACAT-NH2 [PNA8] (PNA; 3 R-MP-gamma units; C-terminal amide; modified_base (1)..(1) R-MP-gamma-backbone modified nucleotide; modified_base (8)..(8) R-MP-gamma-backbone modified nucleotide; modified_base (15)..(15) R-MP-gamma-backbone modified nucleotide),108 mM,–,–,–,–,–,–,–,–,–,–,–
H-ACGGGTAGAATAACAT-NH2 [PNA9] (PNA; 5 R-MP-gamma units; C-terminal amide; modified_base (3)..(3) R-MP-gamma-backbone modified nucleotide; modified_base (6)..(6) R-MP-gamma-backbone modified nucleotide; modified_base (9)..(9) R-MP-gamma-backbone modified nucleotide; modified_base (12)..(12) R-MP-gamma-backbone modified nucleotide; modified_base (15)..(15) R-MP-gamma-backbone modified nucleotide),350 mM,–,–,–,–,–,–,–,–,–,–,–
H-ACGGGTAGAATAACAT-NH2 [PNA10] (PNA; 8 R-MP-gamma units; C-terminal amide; modified_base (2)..(2) R-MP-gamma-backbone modified nucleotide; modified_base (4)..(4) R-MP-gamma-backbone modified nucleotide; modified_base (6)..(6) R-MP-gamma-backbone modified nucleotide; modified_base (8)..(8) R-MP-gamma-backbone modified nucleotide; modified_base (10)..(10) R-MP-gamma-backbone modified nucleotide; modified_base (12)..(12) R-MP-gamma-backbone modified nucleotide; modified_bas),>500 mM,–,–,–,–,–,–,–,–,–,–,intensity of the DNA bands ([1]; up to 20 μM (PNA/DNA ratio of 50:1)): remained fairly constant
"H-GCATGTTTGA-NH2 (all [RMPγPNA-N], methylation of C not given here; C-terminal amide) [PNA5]",–,0.054 nM,–,–,–,–,–,–,–,–,–,–
H-GCATGTTTGA-NH2 [PNA1] (all peptide nucleic acid (PNA); C-terminal amide),–,–,14.3 kcal/mol,69.1 kcal/mol,54.7 kcal/mol,470000 M⁻¹ s⁻¹,0.0013 s⁻¹,2.5 nM,11.7 ± 0.24 kcal/mol,65.2 ± 1.2 kcal/mol,53.5 ± 1.2 kcal/mol,"Kd (complementary RNA strand; [7]): 0.035 nM; differential Tm (ΔTm), RNA versus DNA binding (complementary RNA strand; duplex with RNA compared to duplex with DNA): 10 °C; Tm ([4]; C<>T mismatch): 37 °C; ΔTm between the perfect match and mismatch ([4]; C<>T mismatch): (−18) ° C.; Tm ([4]; G<>T mismatch): 44 °C; ΔTm between the perfect match and mismatch ([4]; G<>T mismatch): (−11) ° C.; Tm ([4]; T(U)<>T mismatch): 40 °C; ΔTm between the perfect match and mismatch ([4]; T(U)<>T mismatch): (−15) ° C.; Tm ([4]; X = A (A-T perfect match)): 55 °C; ΔTm, single-base mismatch (X=C, G, T) [4, 8]: −11 to −18 °C; Kd ([3]; read-out: Kd): 2.8 nM; Tm ([5]; C<>T mismatch): 31 °C; ΔTm between the perfect match and mismatch ([5]; C<>T mismatch): (−14)^† ° C.; Tm ([5]; G<>T mismatch): 31 °C; ΔTm between the perfect match and mismatch ([5]; G<>T mismatch): (−14) ° C.; Tm ([5]; T(U)<>T mismatch): 35 °C; ΔTm between the perfect match and mismatch ([5]; T(U)<>T mismatch): (−10) ° C.; Tm ([5]; X = A (A-T perfect match)): 45 °C; ΔTm, single-base mismatch (X=C, G, T) [5, 8]: −10 to −14 °C"
H-GCATGTTTGA-NH2 [PNA3] (PNA; 3 R-MP-gamma units; C-terminal amide; modified_base (4)..(4) R-MP-gamma-backbone modified nucleotide; modified_base (6)..(6) R-MP-gamma-backbone modified nucleotide; modified_base (8)..(8) R-MP-gamma-backbone modified nucleotide),–,0.3 nM,17 kcal/mol,83.7 kcal/mol,66.9 kcal/mol,620000 M⁻¹ s⁻¹,0.00019 s⁻¹,0.051 nM,14.1 ± 0.24 kcal/mol,75.5 ± 2.63 kcal/mol,61.2 ± 2.63 kcal/mol,–
H-GCATGTTTGA-NH2 [PNA4] (PNA; 5 R-MP-gamma units; C-terminal amide; modified_base (2)..(2) R-MP-gamma-backbone modified nucleotide; modified_base (4)..(4) R-MP-gamma-backbone modified nucleotide; modified_base (6)..(6) R-MP-gamma-backbone modified nucleotide; modified_base (8)..(8) R-MP-gamma-backbone modified nucleotide; modified_base (10)..(10) R-MP-gamma-backbone modified nucleotide),–,0.041 nM,17.4 kcal/mol,85.1 kcal/mol,67.6 kcal/mol,660000 M⁻¹ s⁻¹,0.3 × 10^−4 ^† s^−1,0.0035 nM,15.5 ± 0.24 kcal/mol,78.6 ± 3.35 kcal/mol,63.3 ± 2.87 kcal/mol,"SPR-derived Kd relative to Kd determined by UV melting experiments ([3]; Table 3 versus Table 2, DNA target): 12 fold"
